# In ChEMBL document CHEMBL1201862, “PubChem BioAssay data set” (2004):
#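 Five compound concentrations were applied to cells in 96-well plates for 48 hours; endpoints were derived by simple linear interpolation of the resulting dose-response curve. GI50 marks 50% less growth.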 Active and inactive are the calls of the source. No stated cut-off is given here; in the data, active = GI50 up to about 1.1 µM and inactive = higher.
# How the values were obtained:
# Experiment in all cases: growth of human tumour cells (NCI), 48 h
# MOLT-4 = test system: MOLT-4
# ACHN = test system: ACHN
# HT-29 = test system: HT-29
# SR = test system: SR
# HCC 2998 = test system: HCC 2998
# HOP-92 = test system: HOP-92
# UO-31 = test system: UO-31
# SK-MEL-2 = test system: SK-MEL-2
# DU-145 = test system: DU-145
# HCT-116 = test system: HCT-116
# IGROV-1 = test system: IGROV-1
# NCI-H226 = test system: NCI-H226
# MDA-N = test system: MDA-N
# SF-295 = test system: SF-295
# COLO 205 = test system: COLO 205
# UACC-257 = test system: UACC-257
# HL-60 = test system: HL-60
# OVCAR-5 = test system: OVCAR-5
# Malme-3M = test system: Malme-3M
# RPMI-8226 = test system: RPMI-8226
Compound,GI50 (MOLT-4),GI50 (ACHN),GI50 (HT-29),GI50 (SR),GI50 (HCC 2998),GI50 (HOP-92),GI50 (UO-31),GI50 (SK-MEL-2),GI50 (DU-145),GI50 (HCT-116),GI50 (IGROV-1),GI50 (NCI-H226),GI50 (MDA-N),GI50 (SF-295),GI50 (COLO 205),GI50 (UACC-257),GI50 (HL-60),GI50 (OVCAR-5),GI50 (Malme-3M),GI50 (RPMI-8226)
COCCOCc1nc(C#N)c(N)o1,> 100 µM (inactive),> 100 µM (inactive),> 100 µM (inactive),> 100 µM (inactive),> 100 µM (inactive),> 100 µM (inactive),> 100 µM (inactive),> 100 µM (inactive),> 100 µM (inactive),> 100 µM (inactive),> 100 µM (inactive),> 100 µM (inactive),> 100 µM (inactive),> 100 µM (inactive),> 100 µM (inactive),> 100 µM (inactive),> 100 µM (inactive),> 100 µM (inactive),> 100 µM (inactive),> 100 µM (inactive)
S=C(N/N=C(/c1ccccc1)c1ccccn1)Nc1ccc(Cl)cc1,< 0.0171 µM (active),0.322 µM (active),0.0998 µM (active),< 0.0204 µM (active),1.88 µM (inactive),2.11 µM (inactive),0.543 µM (active),0.455 µM (active),1.87 µM (inactive),< 0.0162 µM (active),0.112 µM (active),0.542 µM (active),1.09 µM (active),0.627 µM (active),0.0418 µM (active),0.0569 µM (active),< 0.01 µM (active),0.0705 µM (active),0.109 µM (active),< 0.0221 µM (active)
CC1(C)N=C2C(=O)c3c([nH]c4ccccc34)[C@]3(C)CCC1CC23 (some centres not stated),> 6.25 µM (inactive),> 6.25 µM (inactive),> 6.25 µM (inactive),> 6.25 µM (inactive),> 6.25 µM (inactive),> 6.25 µM (inactive),> 6.25 µM (inactive),> 6.25 µM (inactive),> 6.25 µM (inactive),> 6.25 µM (inactive),> 6.25 µM (inactive),> 6.25 µM (inactive),> 6.25 µM (inactive),> 6.25 µM (inactive),> 6.25 µM (inactive),> 6.25 µM (inactive),> 6.25 µM (inactive),> 6.25 µM (inactive),> 6.25 µM (inactive),> 6.25 µM (inactive)
COc1ccc(/C(=N/N=c2\[nH]c3ccccc3n2Cc2ccccc2)C(=O)O)cc1,7.8 µM (inactive),22.6 µM (inactive),22 µM (inactive),3.29 µM (inactive),10 µM (inactive),11.7 µM (inactive),25.8 µM (inactive),28.4 µM (inactive),30.7 µM (inactive),12.7 µM (inactive),6.92 µM (inactive),20.2 µM (inactive),32 µM (inactive),6.81 µM (inactive),4.03 µM (inactive),29 µM (inactive),3.19 µM (inactive),48.5 µM (inactive),17.6 µM (inactive),10 µM (inactive)
O=C(O)CN(CC(=O)O)Cc1cc(C#Cc2ccc(C#Cc3ccccc3)cc2)cc(CN(CC(=O)O)CC(=O)O)n1,8.91 µM (inactive),32 µM (inactive),12.9 µM (inactive),18.2 µM (inactive),4.63 µM (inactive),22.9 µM (inactive),5.68 µM (inactive),29.2 µM (inactive),17.3 µM (inactive),8.87 µM (inactive),18.7 µM (inactive),12.2 µM (inactive),35.6 µM (inactive),27.4 µM (inactive),11.5 µM (inactive),40.8 µM (inactive),12.9 µM (inactive),26.4 µM (inactive),31 µM (inactive),17.1 µM (inactive)
CS(=O)(=O)N1CC(CCl)c2ccc(NO)cc21 (configuration not stated),3.48 µM (inactive),7.94 µM (inactive),14.3 µM (inactive),2.3 µM (inactive),14.4 µM (inactive),14.4 µM (inactive),10.3 µM (inactive),17.7 µM (inactive),6.89 µM (inactive),14.7 µM (inactive),13.6 µM (inactive),30 µM (inactive),16.9 µM (inactive),20 µM (inactive),18 µM (inactive),19.5 µM (inactive),1.96 µM (inactive),15.1 µM (inactive),19.1 µM (inactive),4.5 µM (inactive)
CN(C)C(=S)/N=c1\ssc(=S)n1Cc1cccs1,17.5 µM (inactive),9.35 µM (inactive),2.62 µM (inactive),4.88 µM (inactive),6.7 µM (inactive),5.26 µM (inactive),6.28 µM (inactive),2.88 µM (inactive),3.24 µM (inactive),3.15 µM (inactive),4.11 µM (inactive),13.7 µM (inactive),0.604 µM (active),1.93 µM (inactive),2.36 µM (inactive),6.76 µM (inactive),2.44 µM (inactive),> 55.3 µM (inactive),2.4 µM (inactive),5.81 µM (inactive)
CCCCOCCOC1=C(Cl)C(=O)c2c(O)ccc(O)c2C1=O,0.051 µM (active),0.321 µM (active),0.689 µM (active),0.0995 µM (active),2.5 µM (inactive),0.288 µM (active),0.748 µM (active),1.37 µM (inactive),1.66 µM (inactive),0.261 µM (active),0.855 µM (active),2.26 µM (inactive),0.272 µM (active),1.53 µM (inactive),0.194 µM (active),0.429 µM (active),0.0347 µM (active),1.37 µM (inactive),0.259 µM (active),0.255 µM (active)
CC(C)c1ccc(/C=C2\CSCC3=C2N=C(S)NC3c2ccc(C(C)C)cc2)cc1 (configuration not stated),29.6 µM (inactive),> 100 µM (inactive),45.1 µM (inactive),53.3 µM (inactive),67.6 µM (inactive),68.5 µM (inactive),70.6 µM (inactive),> 100 µM (inactive),> 100 µM (inactive),44.9 µM (inactive),> 100 µM (inactive),> 100 µM (inactive),> 100 µM (inactive),75.9 µM (inactive),> 100 µM (inactive),34.6 µM (inactive),59.2 µM (inactive),> 100 µM (inactive),36.1 µM (inactive),67.6 µM (inactive)
CC1=CC(=O)CC(C)(C)C1/C=C/C(C)=C/C=C/C(C)=C/C=C/C=C(C)/C=C/C=C(C)/C=C/C1C(C)=CC(=O)CC1(C)C (configuration not stated),50.1 µM (inactive),30 µM (inactive),35.7 µM (inactive),66.1 µM (inactive),53.1 µM (inactive),23.3 µM (inactive),67.5 µM (inactive),> 100 µM (inactive),> 100 µM (inactive),20.2 µM (inactive),31.3 µM (inactive),> 100 µM (inactive),35.1 µM (inactive),92 µM (inactive),–,61.2 µM (inactive),38.5 µM (inactive),78.5 µM (inactive),–,25.2 µM (inactive)
CC1(C)COC(c2cccc(C(O)c3ccc(Cl)cc3)c2)=N1 (configuration not stated),12.1 µM (inactive),33.7 µM (inactive),17.7 µM (inactive),31.3 µM (inactive),23.8 µM (inactive),24.9 µM (inactive),17.1 µM (inactive),24.2 µM (inactive),58.2 µM (inactive),18.1 µM (inactive),30.5 µM (inactive),14.8 µM (inactive),24.8 µM (inactive),–,18 µM (inactive),–,41 µM (inactive),17.9 µM (inactive),25.1 µM (inactive),27.2 µM (inactive)
CC(=O)O[C@H]1C(=O)[C@@]2(C)[C@H]([C@H](OC(=O)c3ccccc3)[C@]3(O)C[C@H](OC(=O)[C@H](O)[C@@H](NC(=O)c4ccccc4)c4cccc(N(C)C)c4)C(C)=C1C3(C)C)[C@]1(OC(C)=O)CO[C@@H]1C[C@@H]2O,0.013 µM (active),0.7 µM (active),0.0219 µM (active),0.0322 µM (active),0.0315 µM (active),0.555 µM (active),1.96 µM (inactive),0.0301 µM (active),0.302 µM (active),0.0174 µM (active),0.0537 µM (active),0.665 µM (active),0.00766 µM (active),0.142 µM (active),0.0432 µM (active),0.714 µM (active),0.0122 µM (active),0.157 µM (active),–,0.00968 µM (active)
C=CCC1(O)c2cccc(O)c2C(=O)c2c(O)cccc21,29.3 µM (inactive),32.5 µM (inactive),22.6 µM (inactive),10.9 µM (inactive),17.5 µM (inactive),28.1 µM (inactive),27.8 µM (inactive),17.3 µM (inactive),29.9 µM (inactive),23.1 µM (inactive),45.9 µM (inactive),45.7 µM (inactive),9.93 µM (inactive),27.1 µM (inactive),–,23 µM (inactive),20.5 µM (inactive),35.2 µM (inactive),–,31.7 µM (inactive)
CN(Cc1ccccc1)C(=S)S [SODIUM BENZYL(METHYL)CARBAMODITHIOATE],20 µM (inactive),53.5 µM (inactive),37.5 µM (inactive),20.6 µM (inactive),> 100 µM (inactive),68.2 µM (inactive),27.2 µM (inactive),55.7 µM (inactive),53.5 µM (inactive),19.2 µM (inactive),52.2 µM (inactive),98.6 µM (inactive),70.6 µM (inactive),34 µM (inactive),57.3 µM (inactive),53.2 µM (inactive),26.4 µM (inactive),35.9 µM (inactive),38.7 µM (inactive),–
